In patent US12012417B2, “N-substituted tetrahydrothienopyridine derivatives and uses thereof” (NOVARTIS AG, priority 2018, dated 2024):
Structures can show the parent of a compound that is named as a salt.

Tests used:
[1] = system: Dengue 3 virus MY05-34640-WT-C6/36; assay: High-content imaging cell-based flavivirus immunodetection (HCl-CFI) assay, Dengue 3; settings: Dengue virus, A549, 48 h, read-out: Dengue 3 virus MY05-34640-WT-C6/36 in A549 using HCl [Inhibitor/IC50] Qualified AC50
[2] = system: Dengue 1 virus MY97-10245; assay: High-content imaging cell-based flavivirus immunodetection (HCl-CFI) assay, Dengue 1; settings: Dengue virus, A549, 48 h, read-out: Dengue 1 virus MY97-10245 in A549 using HCl [Inhibitor/IC50] Qualified AC50
[3] = system: Dengue 2 virus MY97-10340; assay: High-content imaging cell-based flavivirus immunodetection (HCl-CFI) assay, Dengue 2; settings: Dengue virus, A549, 48 h, read-out: Dengue 2 virus MY97-10340 in A549 using HCl [Inhibitor/IC50] Qualified AC50, A549 cells, MOI 0.3, 48 h, viral E protein expression
How it was run: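 A549 cells infected at MOI 0.3, treated with 3-fold, 10-point compound dilutions for 48 h. After paraformaldehyde fixation, viral E protein immunostained with 4G2 antibody and nuclei counterstained; imaged by high-content imaging. EC50 = concentration reducing E protein expression by 50%, from dose-response curves.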

[4] = system: Dengue 4 virus MY01-22713; assay: High-content imaging cell-based flavivirus immunodetection (HCl-CFI) assay, Dengue 4; settings: Dengue virus, A549, 48 h, read-out: Dengue 4 virus MY01-22713 in A549 using HCl [Inhibitor/IC50] Qualified AC50, A549 cells, 48 h, viral E protein expression

Row | SMILES | EC50 [1] [nM] | EC50 [2] [nM] | EC50 [3] [nM] | EC50 [4] [nM]
1 | COc1cc(CC(=O)Nc2sc3c(c2C#N)CN(CC2CCCCC2)CC3)ccc1S(N)(=O)=O [Example 7, N-(3-cyano-5-(cyclohexylmethyl)-4,5,6,7-tetrahydrothieno[3,2-c]pyridin-2-yl)-2-(3-methoxy-4-sulfamoylphenyl)acetamide] | < 100 | < 100 | < 100 | < 100
2 | Cc1cccc(CN2CCc3c(sc(NC(=O)Cc4ccc(S(N)(=O)=O)cc4)c3C#N)C2)c1 [Example 102, N-(3-cyano-6-(3-methylbenzyl)-4,5,6,7-tetrahydrothieno[2,3-c]pyridin-2-yl)-2-(4-sulfamoylphenyl)acetamide] | 100 to 1000 | > 1000 | 100 to 1000 | 100 to 1000
3 | CNS(=O)(=O)c1ccccc1CC(=O)Nc1sc2c(c1C#N)CN(Cc1cccc(F)c1)CC2 [Example 28, N-(3-cyano-5-(3-fluorobenzyl)-4,5,6,7-tetrahydrothieno[3,2-c]pyridin-2-yl)-2-(2-(N-methylsulfamoyl)phenyl)acetamide] | < 100 | 100 to 1000 | 100 to 1000 | < 100
4 | COc1cc(CC(=O)Nc2sc3c(c2C#N)CN(Cc2cccc(F)c2)CC3)ccc1S(N)(=O)=O [Example 22, N-(3-cyano-5-(3-fluorobenzyl)-4,5,6,7-tetrahydrothieno[3,2-c]pyridin-2-yl)-2-(3-methoxy-4-sulfamoylphenyl)acetamide] | < 100 | 100 to 1000 | < 100 | < 100
5 | CC1(C)CS(=O)(=O)c2ccc(CC(=O)Nc3sc4c(c3C#N)CN(CC3CCCCC3)C(C)(C)C4)cc21 [Example 72, N-(3-cyano-5-(cyclohexylmethyl)-6,6-dimethyl-4,5,6,7-tetrahydrothieno[3,2-c]pyridin-2-yl)-2-(3,3-dimethyl-1,1-dioxido-2,3-dihydrobenzo[b]thiophen-5-yl)acetamide] | < 100 | < 100 | < 100 | < 100
6 | CC1Cc2sc(NC(=O)Cc3ccc(S(C)(=O)=O)cc3)c(C#N)c2CN1Cc1cc(Cl)ccc1Cl (stereo not drawn) [Example 70, N-(3-cyano-5-(2,5-dichlorobenzyl)-6-methyl-4,5,6,7-tetrahydrothieno[3,2-c]pyridin-2-yl)-2-(4-(methylsulfonyl)phenyl)acetamide] | < 100 | 100 to 1000 | < 100 | < 100
7 | N#Cc1c(NC(=O)Cc2ccc3c(c2)CCS3(=O)=O)sc2c1CN(Cc1cccc(F)c1)CC2 [Example 33, N-(3-cyano-5-(3-fluorobenzyl)-4,5,6,7-tetrahydrothieno[3,2-c]pyridin-2-yl)-2-(1,1-dioxido-2,3-dihydrobenzo[b]thiophen-5-yl)acetamide] | < 100 | 100 to 1000 | 100 to 1000 | < 100
8 | CC1(C)Cc2sc(NC(=O)Cc3ccc4c(c3)C(CN)CS4(=O)=O)c(C#N)c2CN1CC1CCCCC1 (stereo not drawn) [Example 74, 2-(3-(aminomethyl)-1,1-dioxido-2,3-dihydrobenzo[b]thiophen-5-yl)-N-(3-cyano-5-(cyclohexylmethyl)-6,6-dimethyl-4,5,6,7-tetrahydrothieno[3,2-c]pyridin-2-yl)acetamide] | 100 to 1000 | 100 to 1000 | 100 to 1000 | 100 to 1000
9 | CCOc1cc(CC(=O)Nc2sc3c(c2C#N)CN(CC2CC(F)(F)C2)C(C)(C)C3)ccc1S(N)(=O)=O [Example 78, N-(3-cyano-5-((3,3-difluorocyclobutyl)methyl)-6,6-dimethyl-4,5,6,7-tetrahydrothieno[3,2-c]pyridin-2-yl)-2-(3-ethoxy-4-sulfamoylphenyl)acetamide] | < 100 | 100 to 1000 | < 100 | < 100
10 | N#Cc1c(NC(=O)Cc2ccc(S(N)(=O)=O)cc2)sc2c1CCN(Cc1ccc(F)c(F)c1)C2 [Example 105, N-(3-cyano-6-(3,4-difluorobenzyl)-4,5,6,7-tetrahydrothieno[2,3-c]pyridin-2-yl)-2-(4-sulfamoylphenyl)acetamide] | 100 to 1000 | > 1000 | 100 to 1000 | 100 to 1000
11 | CC1Cc2sc(NC(=O)Cc3ccc(S(C)(=O)=O)cc3)c(C#N)c2CN1Cc1cccc(F)c1 (stereo not drawn) [Example 69, N-(3-cyano-5-(3-fluorobenzyl)-6-methyl-4,5,6,7-tetrahydrothieno[3,2-c]pyridin-2-yl)-2-(4-(methylsulfonyl)phenyl)acetamide] | < 100 | 100 to 1000 | < 100 | < 100
12 | CC1Cc2sc(NC(=O)Cc3ccc(S(N)(=O)=O)cc3)c(C#N)c2CN1CC1CCCC1 (stereo not drawn) [Example 59, N-(3-cyano-5-(cyclopentylmethyl)-6-methyl-4,5,6,7-tetrahydrothieno[3,2-c]pyridin-2-yl)-2-(4-sulfamoylphenyl)acetamide hydrochloride] | 100 to 1000 | > 1000 | 100 to 1000 | 100 to 1000
13 | CS(=O)(=O)c1ccc(CC(=O)Nc2sc3c(c2C#N)CCN(Cc2cc(Cl)ccc2Cl)C3)cc1 [Example 121, N-(3-cyano-6-(2,5-dichlorobenzyl)-4,5,6,7-tetrahydrothieno[2,3-c]pyridin-2-yl)-2-(4-(methylsulfonyl)phenyl)acetamide] | > 1000 | > 1000 | 100 to 1000 | 100 to 1000
14 | CCOc1cc(CC(=O)Nc2sc3c(c2C#N)CN(Cc2cccc(F)c2)CC3)ccc1C(N)=O [Example 89, 4-(2-((3-cyano-5-(3-fluorobenzyl)-4,5,6,7-tetrahydrothieno[3,2-c]pyridin-2-yl)amino)-2-oxoethyl)-2-ethoxybenzamide] | 100 to 1000 | 100 to 1000 | 100 to 1000 | 100 to 1000
15 | N#Cc1c(NC(=O)Cc2ccc3c(c2)S(=O)(=O)NC3)sc2c1CN(Cc1cccc(F)c1)CC2 [Example 25, N-(3-cyano-5-(3-fluorobenzyl)-4,5,6,7-tetrahydrothieno[3,2-c]pyridin-2-yl)-2-(1,1-dioxido-2,3-dihydrobenzo[d]isothiazol-6-yl)acetamide] | < 100 | 100 to 1000 | < 100 | < 100
16 | CCC1(CC)Cc2sc(NC(=O)Cc3ccc(S(N)(=O)=O)cc3)c(C#N)c2CN1CC1CCCCC1 [Example 76, N-(3-cyano-5-(cyclohexylmethyl)-6,6-diethyl-4,5,6,7-tetrahydrothieno[3,2-c]pyridin-2-yl)-2-(4-sulfamoylphenyl)acetamide] | < 100 | < 100 | < 100 | < 100
17 | CS(=O)(=O)n1ccc(CC(=O)Nc2sc3c(c2C#N)CN(Cc2cccc(F)c2)CC3)c1 [Example 36, N-(3-cyano-5-(3-fluorobenzyl)-4,5,6,7-tetrahydrothieno[3,2-c]pyridin-2-yl)-2-(1-(methylsulfonyl)-1H-pyrrol-3-yl)acetamide] | 100 to 1000 | > 1000 | 100 to 1000 | 100 to 1000
18 | CS(=O)(=O)c1ccc(CC(=O)Nc2sc3c(c2C#N)CCN(Cc2cccc(F)c2)C3)cc1 [Example 119, N-(3-cyano-6-(3-fluorobenzyl)-4,5,6,7-tetrahydrothieno[2,3-c]pyridin-2-yl)-2-(4-(methylsulfonyl)phenyl)acetamide] | < 100 | > 1000 | 100 to 1000 | < 100
